Assay results published in PubChem BioAssay (NCI).
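Compound exposure: 48 hours, 5 concentrations, 96-well plates. TGI: total growth inhibition.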

How the values were obtained:
Test in all cases: NCI tumour cell line growth inhibition, 48 h
[1] = system: OVCAR-5 ovarian
[2] = system: SK-MEL-5 melanoma
[3] = system: UACC-257 melanoma
[4] = system: A549 NSCLC
[5] = system: SF-539 CNS
[6] = system: CCRF-CEM leukemia
[7] = system: MOLT-4 leukemia
[8] = system: ACHN renal
[9] = system: M19-MEL melanoma
[10] = system: HOP-62 NSCLC
[11] = system: RPMI-8226 leukemia
[12] = system: EKVX NSCLC
[13] = system: OVCAR-4 ovarian
[14] = system: SK-MEL-2 melanoma
[15] = system: DMS 114 small cell lung
[16] = system: HCC-2998 colon
[17] = system: SNB-19 CNS
[18] = system: SF-295 CNS
[19] = system: 786-0 renal
[20] = system: SK-MEL-28 melanoma
[21] = system: RXF 393 renal
[22] = system: NCI-H23 lung
[23] = system: SF-268 CNS
[24] = system: SNB-78 CNS
[25] = system: HOP-92 NSCLC
[26] = system: K-562 leukemia
[27] = system: TK-10 renal
[28] = system: LXFL 529 NSCLC
[29] = system: MALME-3M melanoma
[30] = system: HCT-15 colon
[31] = system: UACC-62 melanoma
[32] = system: HCT-116 colon
[33] = system: KM20L2 colon
[34] = system: M14 melanoma
[35] = system: DMS 273 small cell lung
[36] = system: XF 498 CNS
[37] = system: DLD-1 colon
[38] = system: COLO 205 colon
[39] = system: HT29 colon
[40] = system: OVCAR-3 ovarian
[41] = system: KM12 colon
[42] = system: NCI-H460 lung
[43] = system: HL-60(TB) leukemia
[44] = system: NCI-H522 lung
[45] = system: SW-620 colon
[46] = system: IGROV1 ovarian
[47] = system: OVCAR-8 ovarian
[48] = system: UO-31 renal
[49] = system: SN12C renal
[50] = system: SNB-75 CNS
[51] = system: U251 CNS
[52] = system: MCF7 breast
[53] = system: SK-OV-3 ovarian
[54] = system: LOX IMVI melanoma
[55] = system: P388/ADR leukemia
[56] = system: NCI-H226 lung
[57] = system: HOP-18 NSCLC
[58] = system: A498 renal
[59] = system: SN12K1 renal
[60] = system: NCI/ADR-RES ovarian
[61] = system: P388 leukemia
[62] = system: CAKI-1 renal

Question: Which TGI [1] does the source give for `COC(=O)C1=C(C(=O)OC)C23C=CC=CC24C(C(=O)OC)=C(C(=O)OC)C4C1C3` (stereo not given) here?
Answer: > 100 µM

Question: And the TGI [2]?
Answer: > 100 µM

Question: And the TGI [3]?
Answer: > 100 µM

Question: What about the TGI [4] of the same compound?
Answer: > 100 µM

Question: And the TGI [5]?
Answer: > 100 µM

Question: And the TGI [6]?
Answer: > 100 µM

Question: And the TGI [7]?
Answer: > 100 µM

Question: And the TGI [8]?
Answer: > 100 µM

Question: And the TGI [9]?
Answer: > 100 µM

Question: What about the TGI [10] of the same compound?
Answer: > 100 µM

Question: And the TGI [11]?
Answer: > 100 µM

Question: What about the TGI [12] of the same compound?
Answer: > 100 µM

Question: What about the TGI [13] of the same compound?
Answer: > 100 µM

Question: And the TGI [14]?
Answer: > 100 µM

Question: And the TGI [15]?
Answer: > 100 µM

Question: What about the TGI [16] of the same compound?
Answer: > 100 µM

Question: What about the TGI [17] of the same compound?
Answer: > 100 µM

Question: What about the TGI [18] of the same compound?
Answer: > 100 µM

Question: And the TGI [19]?
Answer: > 100 µM

Question: What about the TGI [20] of the same compound?
Answer: > 100 µM

Question: What about the TGI [21] of the same compound?
Answer: > 100 µM

Question: And the TGI [22]?
Answer: > 100 µM

Question: And the TGI [23]?
Answer: > 100 µM

Question: What about the TGI [24] of the same compound?
Answer: > 100 µM

Question: And the TGI [25]?
Answer: > 100 µM

Question: And the TGI [26]?
Answer: > 100 µM

Question: And the TGI [27]?
Answer: > 100 µM

Question: What about the TGI [28] of the same compound?
Answer: > 100 µM

Question: What about the TGI [29] of the same compound?
Answer: > 100 µM

Question: And the TGI [30]?
Answer: > 100 µM

Question: What about the TGI [31] of the same compound?
Answer: > 100 µM

Question: And the TGI [32]?
Answer: > 100 µM

Question: What about the TGI [33] of the same compound?
Answer: > 100 µM

Question: What about the TGI [34] of the same compound?
Answer: > 100 µM

Question: And the TGI [35]?
Answer: > 100 µM

Question: And the TGI [36]?
Answer: > 100 µM

Question: What about the TGI [37] of the same compound?
Answer: > 100 µM

Question: And the TGI [38]?
Answer: > 100 µM

Question: And the TGI [39]?
Answer: > 100 µM

Question: What about the TGI [40] of the same compound?
Answer: > 100 µM

Question: What about the TGI [41] of the same compound?
Answer: > 100 µM

Question: What about the TGI [42] of the same compound?
Answer: > 100 µM

Question: What about the TGI [43] of the same compound?
Answer: > 100 µM

Question: What about the TGI [44] of the same compound?
Answer: > 100 µM

Question: And the TGI [45]?
Answer: > 100 µM

Question: What about the TGI [46] of the same compound?
Answer: > 100 µM

Question: What about the TGI [47] of the same compound?
Answer: > 100 µM

Question: What about the TGI [48] of the same compound?
Answer: > 100 µM

Question: What about the TGI [49] of the same compound?
Answer: > 100 µM

Question: What about the TGI [50] of the same compound?
Answer: 9.08 µM

Question: And the TGI [51]?
Answer: > 100 µM

Question: Which TGI [1] does the source give for `C[C@@]12CC[C@H]3[C@@H]4CCC(=O)N[C@@]4(C)CC[C@@H]3[C@@]1(C)CC[C@H](OC(=O)Cc1ccc(N(CCCl)CCCl)cc1)C2` here?
Answer: 31.5 µM

Question: What about the TGI [2] of the same compound?
Answer: 27.1 µM

Question: What about the TGI [3] of the same compound?
Answer: 55.8 µM

Question: And the TGI [4]?
Answer: 30.4 µM

Question: And the TGI [5]?
Answer: 33.4 µM

Question: And the TGI [52]?
Answer: 24.7 µM

Question: What about the TGI [6] of the same compound?
Answer: 35.1 µM

Question: What about the TGI [7] of the same compound?
Answer: 38.8 µM

Question: And the TGI [53]?
Answer: 28.5 µM

Question: What about the TGI [9] of the same compound?
Answer: 32.8 µM

Question: What about the TGI [54] of the same compound?
Answer: 27.8 µM

Question: What about the TGI [10] of the same compound?
Answer: 31.1 µM

Question: And the TGI [11]?
Answer: 56 µM

Question: And the TGI [12]?
Answer: 31.3 µM

Question: And the TGI [55]?
Answer: 58.8 µM

Question: And the TGI [56]?
Answer: 33.2 µM

Question: And the TGI [13]?
Answer: 32.2 µM

Question: What about the TGI [14] of the same compound?
Answer: > 100 µM

Question: And the TGI [15]?
Answer: 28.8 µM

Question: And the TGI [16]?
Answer: 31.2 µM

Question: And the TGI [57]?
Answer: 34 µM

Question: What about the TGI [18] of the same compound?
Answer: 31.5 µM

Question: And the TGI [20]?
Answer: 33 µM

Question: And the TGI [21]?
Answer: 32 µM

Question: What about the TGI [22] of the same compound?
Answer: 30.3 µM

Question: And the TGI [23]?
Answer: 31.9 µM

Question: What about the TGI [24] of the same compound?
Answer: 39.2 µM

Question: What about the TGI [25] of the same compound?
Answer: 35.3 µM

Question: What about the TGI [26] of the same compound?
Answer: 48.7 µM

Question: And the TGI [29]?
Answer: 36.1 µM

Question: And the TGI [30]?
Answer: 36.1 µM

Question: What about the TGI [58] of the same compound?
Answer: 32.8 µM

Question: What about the TGI [31] of the same compound?
Answer: 30.5 µM

Question: What about the TGI [32] of the same compound?
Answer: 29.9 µM

Question: And the TGI [33]?
Answer: 32.7 µM

Question: What about the TGI [59] of the same compound?
Answer: 32.5 µM

Question: And the TGI [35]?
Answer: 30.3 µM

Question: And the TGI [37]?
Answer: 47.1 µM

Question: What about the TGI [60] of the same compound?
Answer: 37 µM

Question: What about the TGI [38] of the same compound?
Answer: 38.3 µM

Question: And the TGI [39]?
Answer: 27.8 µM

Question: And the TGI [61]?
Answer: 32 µM

Question: What about the TGI [62] of the same compound?
Answer: 30.5 µM

Question: And the TGI [40]?
Answer: 34.6 µM

Question: What about the TGI [41] of the same compound?
Answer: 44.5 µM

Question: And the TGI [42]?
Answer: 28.2 µM

Question: What about the TGI [44] of the same compound?
Answer: 34.4 µM

Question: And the TGI [45]?
Answer: 34.1 µM

Question: What about the TGI [46] of the same compound?
Answer: 31.3 µM

Question: What about the TGI [47] of the same compound?
Answer: 33.1 µM

Question: And the TGI [48]?
Answer: 33.3 µM

Question: What about the TGI [49] of the same compound?
Answer: 29.1 µM

Question: What about the TGI [50] of the same compound?
Answer: 33.5 µM

Question: What about the TGI [51] of the same compound?
Answer: 28.8 µM
